This is an account of results in patent publication US20150299143A1, “SUBSTITUTED TRIAZOLE AND IMIDAZOLE COMPOUNDS” (HOFFMANN-LA ROCHE INC., priority 2012, published 2015).

Experiment [1] deals with T1, β5c (chymotrypsin-like activity) (Homo sapiens, UniProt P20618+P28074).
T1 construct: protease activity associated with the proteasome complex in cultured cells; endogenous in cells; host or cells: Ramos cells
The experiment is described as follows: Cell-Based Proteasome subunit activity/selectivity assay, β5c, substrate (WLA)2Rh110. The note with it: Ramos cells; substrate (WLA)2Rh110 (β5c); highest concentration tested 20 μM; read-out: Ic50:ramos:rh110-(wla)2. The text has this:
(§1) Cell-Based Proteasome Activity/Selectivity Assay
(§2) The Cell-Based Proteasome subunit activity/selectivity assay was a panel of 5 fluorogenic assays that independently measured the activity of β5c or β 5i (chymotrypsin-like activity), β 2c/2i (trypsin-like), and β 1c or β 1i (caspase-like) protease activity associated with the proteasome complex in cultured cells. Specifically, the following substrates were used for respective subunit activities: β 1i (PAL)2Rh110, β 1c: (LLE)2 Rh110, β 2c/2i: (KQL)2Rh110, β 5c: (WLA)2Rh110, β 5i: (ANW)2Rh110. The following procedure was followed:
(§3) Added 0.5 μl of 100× 4-fold serial diluted test compounds or DMSO to each well. Highest concentration of compound tested was 20 μM, thus compound serial dilution started from […]. Incubated for 30 minutes at 37° C. Then equilibrated at room temperature for 15 minutes. […] Shaked for one minute @ 700 rpm. Incubated for 120 min at room temperature. Then read the plates with an Envision multilabel plate reader (PerkinElmer) with 500 nm excitation/519 nm emission.

The target in experiment [2] is T2, β 1c (caspase-like) (Homo sapiens, UniProt P28072+Q99436).
T2 construct: protease activity associated with the proteasome complex in cultured cells; endogenous in cells; host or cells: Ramos cells
The experiment is described as follows: Cell-Based Proteasome subunit activity/selectivity assay, β1c, substrate (LLE)2Rh110. The settings on record: Ramos cells; substrate (LLE)2Rh110 (β1c); highest concentration tested 20 μM; read-out: Ic50:ramos:rh110-(lle)2.
Text: as §1, §2, §3

The test system of experiment [3] is β 2c/2i (trypsin-like). In words: Cell-Based Proteasome subunit activity/selectivity assay, β2c/2i, substrate (KQL)2Rh110. The settings on record: Ramos cells; substrate (KQL)2Rh110 (β2c/2i); highest concentration tested 20 μM.
Text: as §1, §2, §3

In experiment [4] the target is T3, β 1i (caspase-like) (Homo sapiens, UniProt P28065+P40306).
T3 construct: protease activity associated with the proteasome complex in cultured cells; endogenous in cells; host or cells: Ramos cells
In words: Cell-Based Proteasome subunit activity/selectivity assay, β1i, substrate (PAL)2Rh110. The settings on record: Ramos cells; substrate (PAL)2Rh110 (β1i); highest concentration tested 20 μM; read-out: Ic50:ramos:rh110-(pal)2.
Text: as §1, §2, §3

The target in experiment [5] is T4, β 5i (chymotrypsin-like activity) (Homo sapiens, UniProt P20618+P28062).
T4 construct: protease activity associated with the proteasome complex in cultured cells; endogenous in cells; host or cells: Ramos cells
In words: Cell-Based Proteasome subunit activity/selectivity assay, β5i, substrate (ANW)2Rh110. The note with it: Ramos cells; substrate (ANW)2Rh110 (β5i); highest concentration tested 20 μM; read-out: Ic50:ramos:ac-(anw)2-r110.
Text: as §1, §2, §3

pIC50: −log10 of the molar value. A value given as a limit tells only on which side of the number the result lay.

As a reminder, the pIC50 is −log10 of the IC50, conventionally taken in molar units.

For `CCc1ccc(C(C#N)NC(=O)c2nc(CCNC(=O)c3ccc(OC)c(OC)c3OC)n[nH]2)cc1` (stereo not drawn) [Example 89, 5-[2-(2,3,4-Trimethoxy-benzoylamino)-ethyl]-2H-[1,2,4]triazole-3-carboxylic acid [cyano-(4-ethyl-phenyl)-methyl]-amide], the pIC50 in experiment [1] was no more than 4.70; in experiment [2], no more than 4.70; in experiment [3], no more than 4.70; in experiment [4], no more than 4.70; in experiment [5], 7.27.
On to `N#CC(NC(=O)c1cn(CCNC(=O)c2ccc(C(F)(F)F)cc2F)nn1)c1ccc(C2CC2)cc1` (stereo not drawn) [Example 76, 1-[2-(2-Fluoro-4-trifluoromethyl-benzoylamino)-ethyl]-1H-[1,2,3]triazole-4-carboxylic acid [cyano-(4-cyclopropyl-phenyl)-methyl]-amide], for which the pIC50 is no more than 4.70 in experiment [1]; no more than 4.70 in experiment [2]; no more than 4.70 in experiment [3]; no more than 4.70 in experiment [4]; 7.30 in experiment [5].
On to `COc1ccc(C(C#N)NC(=O)c2cn(CCNC(=O)c3ccc(OC)c(OC)c3OC)nn2)cn1` (stereo not drawn) [Example 65, 1-[2-(2,3,4-Trimethoxy-benzoylamino)-ethyl]-1H-[1,2,3]triazole-4-carboxylic acid [cyano-(6-methoxy-pyridin-3-yl)-methyl]-amide], for which the pIC50 in experiment [1] is no more than 4.70; in experiment [2], 4.75; in experiment [3] it was no more than 4.70; in experiment [4], no more than 4.70; in experiment [5], 6.02.
As for `CCc1ccc(C(C#N)NC(=O)c2cn(CCNC(=O)c3ccc(C)nc3OC)nn2)cc1` (stereo not drawn) [Example 34, N-[2-(4-{[Cyano-(4-ethyl-phenyl)-methyl]-carbamoyl}-[1,2,3]triazol-1-yl)-ethyl]-2-methoxy-6-methyl-nicotinamide], the pIC50 in experiment [1] was no more than 4.70; in experiment [2] it was no more than 4.70; in experiment [3], no more than 4.70; in experiment [4], no more than 4.70; in experiment [5], 6.59.
Consider `COc1ccc(C(=O)NCCn2cc(C(=O)NCc3ccc(Cl)cc3)nn2)c(OC)c1OC` [Example 5, 1-[2-(2,3,4-Trimethoxy-benzoylamino)-ethyl]-1H-[1,2,3]triazole-4-carboxylic acid 4-chloro-benzylamide], for which the pIC50 was no more than 4.70 in experiment [1]; no more than 4.70 in experiment [2]; no more than 4.70 in experiment [3]; no more than 4.70 in experiment [4]; 5.19 in experiment [5].
Regarding `CCOC(=O)[C@H](CCc1ccccc1)NC(=O)c1cn(CCNC(=O)c2ccc(C(F)(F)F)cc2F)nn1` [Example 81, (S)-2-({1-[2-(2-Fluoro-4-trifluoromethyl-benzoylamino)-ethyl]-1H-[1,2,3]triazole-4-carbonyl}-amino)-4-phenyl-butyric acid ethyl ester], the pIC50 in experiment [1] is no more than 4.70; in experiment [2], no more than 4.70; in experiment [3], no more than 4.70; in experiment [4], no more than 4.70; in experiment [5] it was 6.69.
In the case of `COc1cc(C(F)(F)F)ccc1C(=O)NCCn1cc(C(=O)NC(C#N)c2ccc(C(F)(F)F)cc2)nn1` (stereo not drawn) [Example 72, 1-[2-(2-Methoxy-4-trifluoromethyl-benzoylamino)-ethyl]-1H-[1,2,3]triazole-4-carboxylic acid [cyano-(4-trifluoromethyl-phenyl)-methyl]-amide], the pIC50 in experiment [1] is no more than 4.70; in experiment [2], no more than 4.70; in experiment [3], no more than 4.70; in experiment [4] it was no more than 4.70; in experiment [5], 6.28.
In the case of `CCc1ccc(C(C#N)NC(=O)c2nc(CCNC(=O)c3ccc(C(F)(F)F)cc3OC)n[nH]2)cc1` (stereo not drawn) [Example 90, 5-[2-(2-Methoxy-4-trifluoromethyl-benzoylamino)-ethyl]-2H-[1,2,4]triazole-3-carboxylic acid [cyano-(4-ethyl-phenyl)-methyl]-amide], the pIC50 in experiment [1] was no more than 4.70; in experiment [2], no more than 4.70; in experiment [3], no more than 4.70; in experiment [4], no more than 4.70; in experiment [5] it was 7.85.
Turning to `COc1ccc(C(=O)NCCn2cc(C(=O)NC(C#N)c3ccc(C(F)(F)F)cc3)nn2)c(OC)c1OC` (stereo not drawn) [Example 60, 1-[2-(2,3,4-Trimethoxy-benzoylamino)-ethyl]-1H-[1,2,3]triazole-4-carboxylic acid [cyano-(4-trifluoromethyl-phenyl)-methyl]-amide], the pIC50 in experiment [1] was no more than 4.70; in experiment [2], no more than 4.70; in experiment [3], no more than 4.70; in experiment [4], no more than 4.70; in experiment [5], 6.21.
Turning to `CCCc1ccc(C(C#N)NC(=O)c2cn(CCNC(=O)c3ccc(OC)c(OC)c3OC)nn2)cc1` (stereo not drawn) [Example 64, 1-[2-(2,3,4-Trimethoxy-benzoylamino)-ethyl]-1H-[1,2,3]triazole-4-carboxylic acid [cyano-(4-propyl-phenyl)-methyl]-amide], the pIC50 in experiment [1] was 5.08; in experiment [2], 5.01; in experiment [3], no more than 4.70; in experiment [4], 4.99; in experiment [5] it was 6.90.
On to `CCc1ccc(C(C#N)NC(=O)c2cn(CCNC(=O)c3ccccc3COC)nn2)cc1` (stereo not drawn) [Example 33, 1-[2-(2-Methoxymethyl-benzoylamino)-ethyl]-1H-[1,2,3]triazole-4-carboxylic acid [cyano-(4-ethyl-phenyl)-methyl]-amide], for which the pIC50 in experiment [1] was no more than 4.70; in experiment [2], no more than 4.70; in experiment [3], no more than 4.70; in experiment [4] it was no more than 4.70; in experiment [5], 5.74.
With `COc1ccc(C(=O)NCCn2cc(C(=O)NC(C#N)c3ccc4c(c3)OCO4)nn2)c(OC)c1OC` (stereo not drawn) [Example 53, 1-[2-(2,3,4-Trimethoxy-benzoylamino)-ethyl]-1H-[1,2,3]triazole-4-carboxylic acid (benzo[1,3]dioxol-5-yl-cyano-methyl)-amide], the pIC50 in experiment [1] is no more than 4.70; in experiment [2], no more than 4.70; in experiment [3], no more than 4.70; in experiment [4], no more than 4.70; in experiment [5] it was 6.23.
Regarding `CCc1ccc(C(C#N)NC(=O)c2cn(CCNC(=O)c3ccc(F)cc3OC)nn2)cc1` (stereo not drawn) [Example 36, 1-[2-(4-Fluoro-2-methoxy-benzoylamino)-ethyl]-1H-[1,2,3]triazole-4-carboxylic acid [cyano-(4-ethyl-phenyl)-methyl]-amide], the pIC50 in experiment [1] was no more than 4.70; in experiment [2] it was no more than 4.70; in experiment [3], no more than 4.70; in experiment [4], no more than 4.70; in experiment [5] it was 5.69.
As for `COc1ccc(C(=O)NCCn2cc(C(=O)N[C@@H](Cc3ccccc3)C(=O)C(=O)NCc3ccccc3)nn2)c(OC)c1OC` [Example 88, 1-[2-(2,3,4-Trimethoxy-benzoylamino)-ethyl]-1H-[1,2,3]triazole-4-carboxylic acid ((S)-1-benzyl-2-benzylcarbamoyl-2-oxo-ethyl)-amide], the pIC50 in experiment [1] was 5.07; in experiment [2], no more than 4.70; in experiment [3], no more than 4.70; in experiment [4] it was no more than 4.70; in experiment [5] it was 6.34.
In the case of `COc1ccc(C(=O)NCCn2cc(C(=O)NC(C#N)c3ccc(OC(F)(F)F)cc3)nn2)c(OC)c1OC` (stereo not drawn) [Example 10, 1-[2-(2,3,4-Trimethoxy-benzoylamino)-ethyl]-1H-[1,2,3]triazole-4-carboxylic acid [cyano-(4-trifluoromethoxy-phenyl)-methyl]-amide], the pIC50 in experiment [1] is no more than 4.70; in experiment [2], no more than 4.70; in experiment [3], no more than 4.70; in experiment [4], no more than 4.70; in experiment [5] it was 6.05.
